Patent publication US8709303B2, “Dielectric insulation medium” (ABB Research Ltd., priority 2010, dated 2014)

What was measured:
[1] = risk for human toxicity, concluded from mammalian HFC tests; settings: concluded from available results of mammalian HFC tests
Excerpt: This can be concluded from the available results of mammalian HFC (hydrofluorocarbon) tests. Also, information available on commercial hydrofluoro monoethers give no evidence of carcinogenicity, mutagenicity, reproductive/developmental effect and other chronic effects of the compounds of the present application.

[2] = products include I2; cited from earlier work
thermal stability = settings: 175° C. for 30 days

SMILES	risk for human toxicity [1]	temperature at which decomposition into hazardous products starts [2]	thermal stability (thermal stability)
FC(F)(F)COC(F)(F)F [2,2,2-trifluoroethyl-trifluoromethyl ether (CF3—O—CH2CF3)]	low risk for human toxicity		
FC(F)(F)I [CF3I, trifluoroiodomethane (CF3I)]		around 100 °C	
COC(F)(F)C(F)(F)F [pentafluoro-ethyl-methyl ether, pentafluoro-ethyl-methyl ether (CH3—O—CF2CF3)]	low risk for human toxicity		thermally stable
